Active and inactive are the calls of the source. No cut-off for these calls is given here.
How the values were obtained:
[1] = Inhibition of sheep brain tubulin polymerization in presence of GTP by DAPI based fluorimetric method; design: species or system Ovis aries
HCT-116 [2] = assay: Cytotoxicity against human HCT116 cells assessed as reduction in cell growth measured after 72 hrs by MTS assay; format: functional, cell-based
MIA PaCa-2 = assay: Cytotoxicity against human MIAPaCa2 cells assessed as reduction in cell growth measured after 72 hrs by MTS assay; format: functional, cell-based; details: MIA PaCa-2, 72 h
[3] = Cytotoxicity against human A2780R cells assessed as reduction in cell growth measured after 72 hrs by MTS assay; format: functional, cell-based
JIMT-1 = assay: Cytotoxicity against human JIMT1 cells assessed as reduction in cell growth measured after 72 hrs by MTS assay; format: functional, cell-based; details: JIMT-1, 72 h
HCT-116 [4] = assay: Cell cycle arrest in human HCT116 cells assessed as accumulation at S phase at 1 nM incubated for 24 hrs by propidium iodide staining based flow cytometry (reference value: 40%); format: functional
HCT-116 [5] = assay: Cell cycle arrest in human HCT116 cells assessed as accumulation at G0/G1 phase at 10 nM incubated for 24 hrs by propidium iodide staining based flow cytometry (reference value: 37%); format: functional
K562 = assay: Cytotoxicity against human K562 cells assessed as reduction in cell growth measured after 72 hrs by MTS assay; format: functional, cell-based; details: K562, 72 h
HCT-116 [6] = assay: Cell cycle arrest in human HCT116 cells assessed as accumulation at G2/M phase at 1 nM incubated for 24 hrs by propidium iodide staining based flow cytometry (reference value: 23%); format: functional
HUVEC [7] = assay: Antivascular activity against HUVEC assessed as reduction in capillary like tube formation by measuring disruption of cell network integrity at 10 nM measured up to 5 hrs by matrigel method relative to control; format: functional, cell-based; details: Homo sapiens
HUVEC [8] = assay: Antiproliferative activity against human HUVEC assessed as growth inhibition up to 5 hrs; format: cell-based
HCT-116 [9] = assay: Cell cycle arrest in human HCT116 cells assessed as accumulation at G0/G1 phase at 1 nM incubated for 24 hrs by propidium iodide staining based flow cytometry (reference value: 37%); format: functional
HCT-116 [10] = assay: Cell cycle arrest in human HCT116 cells assessed as accumulation at G2/M phase at 10 nM incubated for 24 hrs by propidium iodide staining based flow cytometry (reference value: 23%); format: functional
HCT-116 [11] = assay: Cell cycle arrest in human HCT116 cells assessed as accumulation at S phase at 10 nM incubated for 24 hrs by propidium iodide staining based flow cytometry (reference value: 40%); format: functional
[12] = Antiproliferative activity against HUVEC assessed as growth inhibition after 72 hrs; format: cell-based; details: human, HUVEC cells
HCT-116 [13] = assay: Cell cycle arrest in human HCT116 cells assessed as accumulation at G2/M phase incubated for 24 hrs by propidium iodide staining based flow cytometry; format: functional
A2780 = assay: Cytotoxicity against human A2780 cells assessed as reduction in cell growth measured after 72 hrs by MTS assay; format: functional, cell-based; details: A2780, 72 h
K-562R = assay: Cytotoxicity against human K562R cells assessed as reduction in cell growth measured after 72 hrs by MTS assay; format: functional, cell-based
HCT-116 [14] = assay: Cell cycle arrest in human HCT116 cells assessed as accumulation at G2/M phase at 5 nM incubated for 24 hrs by propidium iodide staining based flow cytometry (reference value: 23%); format: functional
HCT-116 [15] = assay: Cell cycle arrest in human HCT116 cells assessed as accumulation at G0/G1 phase at 5 nM incubated for 24 hrs by propidium iodide staining based flow cytometry (reference value: 37%); format: functional
HCT-116 [16] = assay: Cell cycle arrest in human HCT116 cells assessed as accumulation at S phase at 5 nM incubated for 24 hrs by propidium iodide staining based flow cytometry (reference value: 40%); format: functional
HCT-116 [17] = assay: Induction of apoptosis in human HCT116 cells assessed as caspase-3/7 activation at 0.1 to 10 nM after 24 hrs by Apo-one caspase 3/7 assay; format: functional, cell-based
[18] = Homo sapiens, HCT-116, 72 h, read-out: IC50

| IC50 ([1]; read-out: IC50) | IC50 [1] | SMILES | IC50 (HCT-116 [2]; [18]) | further results |
| --- | --- | --- | --- | --- |
| 3140 nM | – | CN(c1ccc2c(c1)c1ccccc1n2C)c1nc(Cl)nc2ccccc12 | 1.06 nM | – |
| – | Not Active | Cc1cc(N(C)c2ccc3c(c2)c2ccccc2n3C)ccn1 | 879 nM | – |
| – | Not Active | CN(c1ccc2c(c1)c1ccccc1n2C)c1cc(C(F)(F)F)nc2ccccc12 | 847 nM | – |
| 2760 nM | – | Cc1cc(N(C)c2ccc3c(c2)c2cc(N)ccc2n3C)c2ccccc2n1 | 2.88 nM | – |
| – | Not Active | COc1ccc(N(C)c2cc(C)nc3ccccc23)nc1Cl | 462 nM | – |
| 1240 nM | – | Cc1cc(N(C)c2ccc3c(c2)c2ccccc2n3C)c2cccc(O)c2n1 | 50.6 nM | – |
| – | Not Active | Cc1cc(N(C)c2ccc3c(c2)c2cc(C(C)O)ccc2n3C)c2ccccc2n1 (stereo not given) | 219 nM | – |
| – | Not Active | C=C(c1cc(N(C)c2cc(C)nc3ccccc23)ccc1OC)c1cc(C)nc2ccccc12 | 969 nM | – |
| 1340 nM | – | Cc1cc(N(C)c2ccc3c(ccn3C)c2)c2ccccc2n1 | 2 nM | – |
| 5760 nM | – | Cc1cc(N(C)c2ccc3c(c2)c2ccccc2n3C)c2cc(N)ccc2n1 | 24.5 nM | – |
| – | Not Active | COc1ccc2c(ccn2-c2cc(C)nc3ccccc23)c1 | 482 nM | – |
| 4080 nM | – | Cc1cc(N(C)c2ccc3c(c2)OCCO3)c2ccccc2n1 | 20.7 nM | – |
| 1400 nM | – | CN(c1ccc2c(c1)c1ccccc1n2C)c1cc(C#N)nc2ccccc12 | 12 nM | – |
| – | Not Active | Cc1cc(N(C)c2ccc3oc4ccccc4c3c2)c2ccccc2n1 | 844 nM | – |
| – | Not Active | Cn1c2ccccc2c2cc([N+](C)(C)c3ccnc4ccccc34)ccc21.[I-] | 891 nM | – |
| 3800 nM | – | Cc1nc(N(C)c2ccc3c(c2)c2ccccc2n3C)c2ccccc2n1 | 2.4 nM | – |
| – | Not Active | Cc1cc(N(C)c2ccc3c(c2)c2cc([N+](=O)[O-])ccc2n3C)c2ccccc2n1 | – | IC50 (HCT-116 [2]; hct-116): Not Active |
| 2500 nM | – | CN(c1ccc2c(ccn2C)c1)c1cc(C(F)(F)F)nc2ccccc12 | 3.28 nM | – |
| 1130 nM | – | Cc1cc(N(C)c2ccc3c(c2)c2ccccc2n3C)c2ccccc2n1 | 0.07 nM | IC50 (MIA PaCa-2): 0.47 nM; IC50 [3]: 0.54 nM; IC50 (JIMT-1): 0.36 nM; Activity (HCT-116 [4]): 40%; Activity (HCT-116 [5]): 0%; IC50 (K562): 0.6 nM; Activity (HCT-116 [6]): 25%; Activity (HUVEC [7]): Active; Activity (HUVEC [8]): Non-Toxic; Activity (HCT-116 [9]): 35%; Activity (HCT-116 [10]): 82%; Activity (HCT-116 [11]): 18%; GI50 at 72 h [12]: 3.23 nM; Activity (HCT-116 [13]): Dose-dependent effect; IC50 (A2780): 0.53 nM; IC50 (K-562R): 0.28 nM; Activity (HCT-116 [14]): 80%; Activity (HCT-116 [15]): 8%; Activity (HCT-116 [16]): 12%; Activity (HCT-116 [17]): Dose-dependent effect |
| – | Not Active | COc1ccc(N(C)c2cc(C)nc3ccccc23)nc1O | 205 nM | – |
| 1160 nM | – | CN(c1ccc2c(c1)c1ccccc1n2C)c1cc(Cl)nc2ccccc12 | 16.7 nM | – |
| 1190 nM | – | CN(c1ccc2c(ccn2C)c1)c1nc(Cl)nc2ccccc12 | 0.2 nM | IC50 (MIA PaCa-2): 0.62 nM; IC50 [3]: 2.34 nM; IC50 (JIMT-1): 0.52 nM; IC50 (K562): 0.77 nM; IC50 (A2780): 0.24 nM; IC50 (K-562R): 1.77 nM |
| – | Not Active | Cc1cc(N(C)c2ccc3[nH]c4ccccc4c3c2)c2ccccc2n1 | – | IC50 (HCT-116 [2]; hct-116): Not Active |
| 900 nM | – | COc1ccc(N(C)c2cc(C)nc3ccccc23)nc1N | 1.73 nM | – |
| – | Not Active | Cc1cc(N(C)c2ccc3c(c2)c2ccccc2n3C)c2cc([N+](=O)[O-])ccc2n1 | 623 nM | – |
| – | Not Active | Cc1cc(N(C)c2ccc3c(c2)c2ccccc2n3Cc2ccccc2)c2ccccc2n1 | – | IC50 (HCT-116 [2]; hct-116): Not Active |
| – | Not Active | CCn1c2ccccc2c2cc(N(C)c3cc(C)nc4ccccc34)ccc21 | 186 nM | – |
| – | Not Active | CN(c1ccc2c(c1)c1ccccc1n2C)c1ccnc2ccccc12 | 943 nM | – |
| 1480 nM | – | COc1cccc2c(N(C)c3ccc4c(c3)c3ccccc3n4C)cc(C)nc12 | 21.6 nM | – |

| SMILES | IC50 ([1]; read-out: IC50) | IC50 [1] | IC50 (HCT-116 [2]; [18]) | further results |
| --- | --- | --- | --- | --- |
| C=C(c1ccc(OC)c(O)c1)c1cc(OC)c(OC)c(OC)c1 | 1000 nM | – | 1.8 nM | IC50 (MIA PaCa-2): 5 nM; IC50 [3]: 2.66 nM; IC50 (JIMT-1): 3.08 nM; IC50 (A2780): 3.01 nM |

Source: ChEMBL document CHEMBL4390655, “N,N-bis-heteroaryl methylamines: Potent anti-mitotic and highly cytotoxic agents” (Eur J Med Chem, 2019)
